Test results taken from patent US20090203605A1, “Methods For Treating A Condition Characterized By Dysfunction In Protein Homeostasis” (THE SCRIPPS RESEARCH INSTITUTE, priority 2008, published 2009).
Residues, ends and D or L forms follow the SMILES beside them. *: point of attachment. Cbz = O=C(OCc1ccccc1)*

Experiments:
L444P GC [1] = target: T1, L444P GC (Homo sapiens, UniProt P04062, L483P); experiment: GC activity assay in L444P GC Gaucher patient-derived fibroblasts; format: cell-based
T1 construct: a L444P GC Gaucher fibroblast cell line (GM08760); host or cells: Gaucher patient-derived skin fibroblasts
T1 sequence (P04062 40-536 L483P): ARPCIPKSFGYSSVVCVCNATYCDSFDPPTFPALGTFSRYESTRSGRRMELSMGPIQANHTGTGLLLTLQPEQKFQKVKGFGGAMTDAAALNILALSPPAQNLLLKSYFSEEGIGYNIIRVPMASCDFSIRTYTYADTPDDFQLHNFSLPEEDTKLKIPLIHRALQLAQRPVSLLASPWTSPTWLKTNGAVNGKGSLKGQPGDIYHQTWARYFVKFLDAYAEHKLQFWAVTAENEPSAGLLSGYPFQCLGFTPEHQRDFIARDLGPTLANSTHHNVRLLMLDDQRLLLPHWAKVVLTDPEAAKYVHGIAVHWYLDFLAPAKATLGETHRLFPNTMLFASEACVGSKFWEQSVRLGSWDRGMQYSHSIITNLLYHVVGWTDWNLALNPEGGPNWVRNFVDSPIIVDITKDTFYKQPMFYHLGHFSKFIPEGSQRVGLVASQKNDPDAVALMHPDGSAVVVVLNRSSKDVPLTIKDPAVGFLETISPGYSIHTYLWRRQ

L444P GC [2] = format: cell-based, human; conditions: MG-132 0.25 μM for 3 d; diltiazem 10 μM for 14 days
Source text: (§1) Immunofluorescence. Immunofluorescence has been previously described.
as §1

[3] = tested on: Hsp70, HSF1, BiP, Hsp40, Hsp90; experiment: Western blot of chaperone and HSF1 protein levels in L444P GC fibroblasts; format: cell-based, human
Protocol: To correlate changes in Hsp70 chaperone levels with the celastrol-mediated transcriptional increase in Hsp70, as well as to investigate the temporal dependence of the change in Hsp70 levels, L444P GC fibroblasts were subjected to a single celastrol exposure (0.8 μM) for the period indicated and Hsp70 expression levels in cell lysates were analyzed by Western blot analysis. […] Hsp70, a product of HSR activation, has been implicated in HSR autoregulation by binding to HSF1, thereby repressing heat shock gene transcription (FIG. 7). Morimoto, Genes Dev 12: 3788-3796, 1998; Westerheide et al., J Biol Chem 280: 33097-33100, 2005.
Since HSF1 is likely to be responsible for celastrol's induction of the HSR we monitored HSF1 levels. Westerheide et al., J Biol Chem 279: 56053-56060, 2004. […] Awasthi, et al., Invest Opthalmol Vis Sci 46: 2082-2091, 2005; Bush et al., J Biol Chem 272: 9086-9092, 1997.
Western blot analyses. […] Total cell protein was determined with Micro BCA assay reagent (Pierce, Rockford, Ill.) and each sample was diluted to the same protein concentration. […] The western blot bands of the endoH treated samples were quantified by Java Image processing and analysis software from the NIH (http://rsb.info.nih.gov/ij/).
Western blot. […] Total cell protein was measured using the Micro BCA assay reagent. […]

[4] = tested on: chaperone, CHOP and GC mRNA expression levels; experiment: Quantitative RT-PCR in L444P GC fibroblasts; format: cell-based, human
Source text: The relative mRNA expression levels of representative cytoplasmic HSR-associated chaperones (Hsp40, Hsp70, Hsp90, Hsp27, αB-crystallin), ER lumenal UPR-associated chaperones (BiP, GRP94, calreticulin), and the ER chaperone calnexin were monitored and their reported levels were normalized to the levels in untreated cells (FIGS. 5A and B). The levels of glyceraldehyde-3-phosphate dehydrogenase, monitored as a housekeeping control, were unchanged in treated and untreated cells.
Quantitative RT-PCR. […] The forward and reverse primers for Hsp40, Hsp70, Hsp90, Hsp27, αB-crystallin (CRYAB), BiP, GRP94, calnexin (CNX), calreticulin (CRT), Xbp-1, and CHOP, and an endogenous housekeeping gene GAPDH are listed in Table 2. […] Each data point was evaluated in triplicate, and measured three times.

[5] = diltiazem 10 μM, 7-day treatment

| SMILES | L444P GC activity as % of WT GC activity (L444P GC [1]; MG-132 single exposure, after 120 h (FIG. 2A)) | colocalization of L444P GC with lysosomal marker LAMP2 (L444P GC [2]) | HSF1 protein levels ([3]; 0.8 μM, over 24 h) | transcription of Hsp27 ([4]; 0.8 μM, 24 h) | transcription of calnexin ([4]; 0.8 μM, 24 h) | mRNA expression level of BiP ([4]; 0.8 μM, 2, 4, 6 and 24 h) | mRNA expression level of CHOP ([4]; 0.8 μM, 2, 4, 6 and 24 h) | direct activation of lysosomal L444P GC (L444P GC [1]; 1 μM to 100 μM, 1 h, intact cell assay) | effect on L444P GC activity, intact cell GC activity assay (L444P GC [1]; calcium channel blockers and ionotropic glutamate receptor inhibitors) | L444P GC activity as % of normal cellular WT GC activity (L444P GC [1]; diltiazem 10 μM, 5-day incubation, type II line (FIG. 17C, left panel)) | protein expression levels of BiP, Hsp40, and Hsp90 [3, 5] | mRNA expression levels of Hsp70, GRP94, calnexin, and calreticulin [4, 5] | GC mRNA expression level vs untreated cells ([4]; diltiazem 10 μM, 6 h, 12 h, 1 day, 3 days and 5 days) |
| --- | --- | --- | --- | --- | --- | --- | --- | --- | --- | --- | --- | --- | --- |
| CC(C)C[C@@H](C=O)NC(=O)[C@H](CC(C)C)NC(=O)[C@H](CC(C)C)NC(=O)OCc1ccccc1 [MG-132] (Cbz-Leu-Leu-Leu-aldehyde) | ≈ 50.0% | exhibited colocalization with the lysosomal marker LAMP2 | remained constant | did not | upregulated the transcription of calnexin significantly | BiP was also upregulated | upregulated the mRNA expression level of CHOP significantly |  |  |  |  |  |  |
| COc1ccc([C@@H]2Sc3ccccc3N(CCN(C)C)C(=O)[C@@H]2OC(C)=O)cc1.Cl [diltiazem, Diltiazem hydrochloride] |  | L444P GC colocalized with LAMP2 |  |  |  |  |  | No activity increase was observed | increased L444P GC activity significantly | ≈ 24% | increased protein expression levels | not changed significantly | No significant differences |
